Results on 14 compounds are retold here after PubChem BioAssay (NCI).

Structures are written as SMILES.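 Each compound was tested at five concentrations against cells in 96-well plates for 48 hours. GI50 marks 50% less growth. TGI: total growth inhibition.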 Some results are limits rather than exact numbers.

Some test systems named below: A549 NSCLC; ACHN renal; HT29 colon; LOX IMVI melanoma; NCI-H522 lung; OVCAR-3 ovarian; SK-MEL-2 melanoma; SW-620 colon; TK-10 renal.
Common to all, as to assay: growth of human tumour cells (NCI), 48 h

`CCOc1ccccc1N=Nc1c(-c2ccccc2)nn(C(=O)CC(=O)Nc2cccc(C)c2)c1-c1ccccc1`: the TGI in the assay on A549 NSCLC, with ACHN renal, in the assay with HT29 colon, in the assay with LOX IMVI melanoma, in the assay on NCI-H522 lung and with OVCAR-3 ovarian was over 100 µM each time. Moreover, the TGI in the assay on SK-MEL-2 melanoma, with SW-620 colon and in the assay on TK-10 renal was over 100 µM throughout.
Consider `N/N=C(/Cc1nc2ccc(C(=O)c3ccccc3)cc2[nH]c1=O)C(=O)Nc1ccc([N+](=O)[O-])cc1[N+](=O)[O-]`, for which the GI50 with A549 NSCLC, in the assay with ACHN renal, with HT29 colon, with LOX IMVI melanoma, with NCI-H522 lung and in the assay on SK-MEL-2 melanoma was over 100 µM in each case. The TGI in the assay on A549 NSCLC, in the assay with ACHN renal, in the assay on HT29 colon, in the assay with LOX IMVI melanoma, with NCI-H522 lung and in the assay on SK-MEL-2 melanoma was over 100 µM each time. Further, the TGI with SW-620 colon and in the assay with TK-10 renal was over 100 µM throughout.
In the case of `CN(/N=C\c1ccnc2ccccc12)c1ccc([N+](=O)[O-])cc1`, the TGI with A549 NSCLC, in the assay on ACHN renal, in the assay with HT29 colon, with LOX IMVI melanoma, in the assay on OVCAR-3 ovarian and with SK-MEL-2 melanoma was over 100 µM throughout. Further, the TGI in the assay with SW-620 colon and with TK-10 renal was over 100 µM each time.
Turning to `CNS(=O)(=O)NNS(=O)(=O)c1ccc(OC)cc1`, the TGI in the assay on A549 NSCLC, with ACHN renal, with HT29 colon, in the assay with LOX IMVI melanoma, with NCI-H522 lung and in the assay on OVCAR-3 ovarian was over 100 µM in each case. Also, the TGI with SK-MEL-2 melanoma and in the assay with SW-620 colon was over 100 µM throughout.
As for `CCNC(=O)OCc1c(COC(=O)NCC)c(-c2ccc(Cl)c(Cl)c2)n2c1CCC2`, the TGI in the assay on A549 NSCLC is 82.3 µM; in the assay on ACHN renal it was 37.5 µM; in the assay on HT29 colon, over 100 µM; with NCI-H522 lung, 19.8 µM; with OVCAR-3 ovarian, 45.8 µM; in the assay on SK-MEL-2 melanoma it was 28.1 µM. Moreover, the results for the TGI with SW-620 colon and with TK-10 renal were 68.8 µM and 54.5 µM, respectively.
On to `CN1CCN(C(=O)COc2ccc(/C=C3\CC4C5CC=C6CC(Cl)CCC6(C)C5CCC4(C)C3=O)cc2)CC1` (stereo not given), for which the GI50 with A549 NSCLC was over 100 µM; in the assay with ACHN renal, over 100 µM; with NCI-H522 lung it was over 100 µM; in the assay on OVCAR-3 ovarian, over 100 µM; in the assay with SK-MEL-2 melanoma, over 100 µM; in the assay on TK-10 renal, 27.4 µM. The TGI in the assay with A549 NSCLC, with ACHN renal, in the assay on NCI-H522 lung, in the assay with OVCAR-3 ovarian, in the assay on SK-MEL-2 melanoma and with TK-10 renal was over 100 µM in each case.
Take `COC(=O)[C@@H]1Cc2c([nH]c3ccccc23)[C@H](c2ccccc2)N1`: the TGI is over 100 µM in the assay on A549 NSCLC; over 100 µM in the assay on ACHN renal; over 100 µM in the assay with HT29 colon; over 100 µM with LOX IMVI melanoma; 53.1 µM with NCI-H522 lung; 98.7 µM in the assay with OVCAR-3 ovarian. The TGI is 82.8 µM with SK-MEL-2 melanoma, over 100 µM in the assay on SW-620 colon and over 100 µM in the assay with TK-10 renal.
`O=C(Nc1ccc(Cl)c(Cl)c1)C(=O)C(C(=O)c1ccccc1-c1ccccc1)C1OC(=O)c2ccccc21` (stereo not given): the TGI was 63.2 µM in the assay with A549 NSCLC; over 100 µM in the assay on ACHN renal; over 100 µM with HT29 colon; 28.9 µM in the assay on LOX IMVI melanoma; 20.6 µM in the assay on NCI-H522 lung; 31.9 µM in the assay on OVCAR-3 ovarian. The TGI came out at 24.7 µM in the assay with SK-MEL-2 melanoma, 42.7 µM in the assay on SW-620 colon and 43.7 µM with TK-10 renal.
As for `COC1(OC)C2(Cl)C(Cl)=C(Cl)C1(Cl)C1C2C2CC1(C(=O)O)c1ccccc12` (stereo not given), the TGI is over 100 µM in the assay on A549 NSCLC; over 100 µM in the assay on ACHN renal; 76.3 µM with HT29 colon; 32 µM in the assay on LOX IMVI melanoma; 33.4 µM in the assay on OVCAR-3 ovarian; 54.3 µM in the assay on SW-620 colon. Also, the TGI in the assay on TK-10 renal was determined as 70 µM.
For the compound `O=C(/C=C\c1cccc2ccccc12)c1ccc(Cl)cc1Cl`, the TGI in the assay on A549 NSCLC is over 100 µM; in the assay on ACHN renal, 32.6 µM; in the assay with HT29 colon it was 35.8 µM; in the assay on NCI-H522 lung, 35.1 µM; with OVCAR-3 ovarian, 43.5 µM; in the assay with SW-620 colon it was 34.2 µM. For the same compound, the TGI in the assay with TK-10 renal is over 100 µM.
Turning to `CC(=O)[CH-]C(=O)c1ccccc1.CC(=O)[CH-]C(=O)c1ccccc1.CC(=O)[CH-]C(=O)c1ccccc1.[Nd+3].[OH3+]`, the GI50 in the assay on A549 NSCLC is over 100 µM; with ACHN renal it was 48.6 µM; in the assay on HT29 colon it was 30 µM; in the assay with NCI-H522 lung, 12.1 µM; in the assay with OVCAR-3 ovarian it was 45.7 µM; with SK-MEL-2 melanoma, 25.9 µM. Moreover, the GI50 in the assay on SW-620 colon was 55.2 µM; with TK-10 renal, over 100 µM. In addition, the TGI in the assay with A549 NSCLC, with ACHN renal, in the assay on HT29 colon, with NCI-H522 lung, with OVCAR-3 ovarian and in the assay on SK-MEL-2 melanoma was over 100 µM throughout. Besides, the TGI with SW-620 colon and in the assay on TK-10 renal was over 100 µM throughout.
On to `COC(=O)C1C(=O)O[C@@H](c2cc(OC)c(OC)cc2OC)C1C(=O)OC` (mixture of isomers), for which the TGI with A549 NSCLC, with ACHN renal, in the assay with HT29 colon, with LOX IMVI melanoma, in the assay on NCI-H522 lung and in the assay with OVCAR-3 ovarian was over 100 µM throughout. In addition, the TGI with SW-620 colon and in the assay on TK-10 renal was over 100 µM throughout.
Take `Clc1cccc(C2N3CCCCC3[C@@H]3c4[nH]c5ccccc5c4CCN23)c1` (stereo not given in full): the TGI is over 100 µM in the assay with A549 NSCLC; 69.4 µM with ACHN renal; 34.2 µM in the assay on HT29 colon; over 100 µM with OVCAR-3 ovarian; 40.1 µM in the assay on SK-MEL-2 melanoma; over 100 µM in the assay on SW-620 colon. The TGI with TK-10 renal was over 100 µM.
Take `NC1=NN(c2ccccc2)C(=O)C1C(=O)C(=O)Nc1ccc(Cl)c(Cl)c1` (stereo not given): the TGI with A549 NSCLC, in the assay on ACHN renal, in the assay with HT29 colon, in the assay with NCI-H522 lung, with OVCAR-3 ovarian and in the assay with SK-MEL-2 melanoma was over 100 µM throughout. The TGI in the assay on SW-620 colon and in the assay on TK-10 renal was over 100 µM in each case.
